According to patent US12178840B2, “Method and compositions comprising a CT20 peptide” (UNIVERSITY OF CENTRAL FLORIDA RESEARCH FOUNDATION, INC., priority 2014, dated 2024):
Residues, ends and D or L forms follow the SMILES beside them.

What was measured:
Format in all cases: cell-based, human
MDA-MB-231 cells [1] = assay: Timeline of biological effects of CT20 in HBPE-NPs in breast cancer cells; conditions: CT20 (˜3.4 nM) in HBPE-NPs
Method: CT20 peptide impaired mitochondrial movement (mitotracker green) (A) leading to clustering (JC-1 probe) (B) and reduced F-actin (green) polymerization (nucleus, DAPI, blue (C). Referring to FIG. 3D, the viability of cells was determined by measuring membrane permeability (Sytox) and membrane asymmetry (violet ratiometric dye). Gates are: N, necrotic; V, viable; A, apoptotic. Percentages are V (black) and N+A (red). Referring to FIG. 3E, by 6 hours, cells detach from substrate (fibronectin). Referring to FIG. 3F, membrane levels of β1 integrin decrease. Referring to FIG. 3G-3I, post-cell detachment events include caspase activation, autophagy, and increased ROS production. Referring to FIG. 3J, apoptosis/anoikis was detected between 24-48 hours as described for 3D.
This triggered hyperpolarization of the mitochondrial membrane and fusion-like aggregation (FIG. 3B) that impaired mitochondrial redistribution, ATP production, and F-actin polymerization (FIG. 3C). Cells remained viable during these “initiating events” (FIG. 3D). However, at 6 hours post-CT20 treatment, cells began detaching from the substrate (fibronectin) (FIG. 3E). This was preceded by decreased expression of integrins (β1 integrin is shown; FIG. 3F). By 24 hours post-CT20 treatment, “effector events” caused by peptide-induced detachment were detected, including the activation of caspases (FIG. 3G), the induction of autophagy (FIG. 3H), and increased ROS production (FIG. 3I). Cell death (anoikis), indicated by membrane asymmetry, was detected in cancer cells by 48 hours (FIG. 3J).

MCF-10A cells = assay: Cellular adhesion assay (fibronectin, crystal violet)
Method: (§1) Cellular adhesion assay: 96-well tissue culture plates were coated with 20 ug/mL fibronectin (Sigma) overnight at 4° C. Cells were then seeded in the plates at a density of 10,000 cells/well. Cells were treated with varying doses of CT20p for 48 hours. Plates were then shaken at 1400 rpm for 15 seconds, washed, and fixed with 10% neutral buffered formalin (Leica). Adhered cells were stained with 5 mg/mL crystal violet (Sigma) and absorbance at 595 nm was read on an EnVision plate reader (Perkin Elmer).
(§2) The effect of CT20p was examined on a panel of cell lines by measuring the impact on cellular adhesion. Metastatic cells vary their adhesion patterns as dictated by their environment (Cheung and Ewald 2014), and targeting adhesion ability could mitigate metastasis. To examine the cell lines, plates were coated with fibronectin to provide an appropriate substrate for adhesion, and cells were treated with CT20p for 48 hours at varying doses (FIG. 5A). […] Treating at this dose would allow us to observe the molecular effects of the peptide prior to cell death.

MDA-MB-436 cells = assay: as above; conditions: 48 hours, varying doses
Method: as §1, §2

BT-549 cells [2] = assay: as above; conditions: 48 hours, varying doses
Method: as §1, §2

MDA-MB-231 cells [3] = assay: as above; conditions: 48 hours, varying doses
Method: as §1, §2

BT-549 cells [4] = assay: Cell viability by flow cytometry (Sytox AADvanced / F2N12S), time course; conditions: 75 ug/mL
Method: (§3) Measurement of cell viability: Cells at 60% confluency were treated with CT20p at a dose of 75 ug/mL for varying lengths of time. Following treatment, cells were collected and stained with Sytox AADvanced and F2N12S Violet Ratiometric Apoptosis kit (Invitrogen). Data was acquired by flow cytometry on a FACS Canto (BD Biosciences), and analyzed with FCSExpress software (DeNovo).
(§4) The cytotoxicity of CT20p to the cell lines was also assessed. To do this, cells were treated with the effective dose of CT20p in a time course-experiment, and membrane symmetry and permeability were examined by flow cytometry (FIG. 5B). […] BT-549 cells, on the other hand, were resistant to the effects of the peptide.

MDA-MB-231 cells [5] = assay: as above; conditions: 75 ug/mL
Method: as §3, §4

MDA-MB-231 cells [6] = assay: Migration assay (Oris exclusion zone); conditions: 24 hours treatment, 10 hours migration
Method: Migration assay: The Oris cell migration assembly kit (Platypus Technologies) was used. Cells were stained with CellTrace Violet (Life Technologies) according to manufacturer's protocol. Stoppers were placed in wells of a 96-well plate before cells were seeded at a density of 30,000 cells per well. For experiments involving CT20p treatment, treatments with CT20p were began 18 hours following seeding and allowed to continue for 24 hours. Treatments were done in quadruplicate. At the end of the treatment period, stoppers were removed to create an exclusion zone that the cells would migrate into. MDA-MB-231 cells were allowed to migrate for 10 hours. MCF-10A and MCF-10A EMT cells were allowed to migrate for 20 hours. Following the migration period, fluorescent images were obtained using a Plate Runner HD (Trophos). […] Images were analyzed by ImageJ software (NIH) by using the wand tool to automatically define and measure the migration zone. % closure was calculated as [(pre migration area−migration area)/pre migration area]×100.
Observations on the effects of CT20p on breast cancer cells include loss of actin distribution throughout the cell, especially in the filapodia (FIG. 3C). […] Immediately following removal of the stoppers, the pre-migration area can be determined. […] After quantification of the areas as described in Materials & Methods, % closure was calculated for each condition (FIG. 11B). […]

Q: How did the “Movement of mitochondria compared to controls” value (MDA-MB-231 cells [1]) turn out when `CC[C@H](C)[C@H](NC(=O)[C@@H](NC(=O)[C@H](CC(C)C)NC(=O)[C@H](CO)NC(=O)[C@H](C)NC(=O)[C@@H](NC(=O)[C@H](CC(C)C)NC(=O)[C@@H](NC(=O)CNC(=O)[C@H](C)NC(=O)[C@@H](NC(=O)[C@H](Cc1ccccc1)NC(=O)[C@@H](NC(=O)[C@@H](NC(=O)[C@@H](NC(C)=O)C(C)C)[C@@H](C)O)[C@@H](C)CC)C(C)C)C(C)C)[C@@H](C)O)[C@@H](C)O)C(=O)N[C@@H](Cc1c[nH]c2ccccc12)C(=O)N[C@@H](CCCCN)C(=O)N[C@@H](CCCCN)C(=O)N[C@@H](CCSC)C(=O)NCC(N)=O` [CT20] (Ac-VTIFVAGVLTASLTIWKKMG-NH2) was run?
A: decreased four-fold

Q: And the “Time by which cell death (anoikis, membrane asymmetry) was detected” value (MDA-MB-231 cells [1])?
A: ≤ 48 h

Q: And the “Time at which cells began detaching from the substrate (fibronectin)” value (MDA-MB-231 cells [1]; post-CT20 treatment)?
A: 6 h

Q: And the “Time by which effector events (caspase activation, autophagy, increased ROS) were detected” value (MDA-MB-231 cells [1]; post-CT20 treatment)?
A: ≤ 24 h

Q: What about the Detachment of cells (MCF-10A cells; 75 μg/mL of CT20p) of the same molecule?
A: does not cause detachment

Q: What about the “Effect on cellular adhesion” value (MCF-10A cells; 48 hours, varying doses, fibronectin) of the same molecule?
A: particularly unaffected

Q: What about the “Effect on cellular adhesion” value (MDA-MB-436 cells) of the same molecule?
A: dose-dependent loss of adhesion

Q: And the “Effect on cellular adhesion” value (BT-549 cells [2])?
A: particularly unaffected

Q: What about the “Effect on cellular adhesion” value (MDA-MB-231 cells [3]) of the same molecule?
A: dose-dependent loss of adhesion

Q: And the “Sensitivity to CT20p cytotoxicity” value (BT-549 cells [4])?
A: resistant

Q: And the “Sensitivity to CT20p cytotoxicity” value (MDA-MB-231 cells [5])?
A: highly susceptible

Q: And the “Effect on migration (% closure of exclusion zone)” value (MDA-MB-231 cells [6]; 75 μg/mL)?
A: significantly impaired movement

Q: What about the “Effect on migration (% closure of exclusion zone)” value (MDA-MB-231 cells [6]; 150 μg/mL) of the same molecule?
A: nearly eliminated
